Test results reported in ChEMBL document CHEMBL3507680, “University of Dundee, Gates Library screen for HepG2 cell viability”.

Assay: Human HepG2 cell viability assay in 384 well format
Type: toxicity, cell-based
Parameters: dose 125 nL, time 70.5 hour; concentration not given beside the values
Conditions: HepG2 cells, read-out: Inhibition

CCc1ccc(C(=O)N2CCCC3(CCCC(=O)N3C)C2)cc1 (stereo unspecified)
cytotoxicity at 70.5 h: -10.6%

O=C(NCC1CC1)C1CCC2(CCN(C(=O)c3ccoc3)CC2)O1 (stereo unspecified)
cytotoxicity at 70.5 h: -20%

Cc1nc(CN2C(=O)C[C@@H]3[C@@H]2CCN3Cc2cnn(C)c2)cs1
cytotoxicity at 70.5 h: -15.4%

CN(C)CCN1C(=O)CCC12CCCN(C(=O)CC1CC1)CC2 (stereo unspecified)
cytotoxicity at 70.5 h: 20.2%

O=C(C1CCOCC1)N1CC[C@@H](O)[C@@H]1Cc1ccncc1
cytotoxicity at 70.5 h: -0.548%

CCOCC(=O)N1CCC2(CC1)CN(Cc1cccnc1)C(=O)CO2
cytotoxicity at 70.5 h: -9.22%

c1cnc(N2CCCC3(CCN(Cc4cccs4)C3)C2)nc1 (stereo unspecified)
cytotoxicity at 70.5 h: -6.41%

COCCN1C(=O)CCC12CCCN(C(=O)CC1CC1)CC2 (stereo unspecified)
cytotoxicity at 70.5 h: -6.84%

O=C(c1ccnnc1)N1CC[C@@H](O)[C@@H]1Cc1ccccc1
cytotoxicity at 70.5 h: -9.3%

CN(C)C(=O)N1CC[C@@H](O)[C@@H]1Cc1ccccc1
cytotoxicity at 70.5 h: -7.54%

O=C1CC2(CCCCN2C(=O)c2cccs2)CN1CC1CC1 (stereo unspecified)
cytotoxicity at 70.5 h: 3.54%

CN(C)CCNC(=O)c1ccc2ccc(N(C)CC3CC3)n2c1
cytotoxicity at 70.5 h: -0.944%

Cc1nc(N2CCOCC2)nc2c1CCN(C(=O)N1CCCC1)CC2
cytotoxicity at 70.5 h: -2.06%

Cc1cccc(CN2C(=O)CCC23CCN(Cc2ccoc2)CC3)n1
cytotoxicity at 70.5 h: -0.993%

CN(C)C(=O)CNC(=O)c1ccc2ccc(N(C)CC3CC3)n2c1
cytotoxicity at 70.5 h: -12.4%

CCS(=O)(=O)N1CCc2nc(N3CCCC3)nc(N(C)C)c2CC1
cytotoxicity at 70.5 h: 24.9%

CCS(=O)(=O)N1CCOC2(COCCN(C(C)=O)C2)C1 (stereo unspecified)
cytotoxicity at 70.5 h: 28.6%

Cc1nnc(N2C[C@@H]3CCCO[C@@H]3[C@H](N(C)C)C2)s1
cytotoxicity at 70.5 h: 26.3%

CN1CCN(C(=O)Cc2ccccn2)Cc2cccnc21
cytotoxicity at 70.5 h: -2.09%

COCC1CN(C(=O)c2ccnnc2)Cc2ncnn2C1 (stereo unspecified)
cytotoxicity at 70.5 h: -3.33%

CCN1C(=O)C2(CCOCC2)c2cc(NC(=O)c3cnccn3)ccc21
cytotoxicity at 70.5 h: 1.85%

CCN1C(=O)C2(CCOCC2)c2cc(NC(=O)c3cc(C)n[nH]3)ccc21
cytotoxicity at 70.5 h: -3.02%

Cc1cc(C(=O)NCC2Cn3nnc(C)c3CO2)no1 (stereo unspecified)
cytotoxicity at 70.5 h: -7.19%

Cn1cc(CN2CCc3c(COCc4ccncc4)cncc3C2)cn1
cytotoxicity at 70.5 h: -6.18%

Cc1ccc(CN2CC[C@H]3C[C@H](c4nc(C5CC5)cs4)O[C@@H]3C2)o1
cytotoxicity at 70.5 h: -6.11%

c1cc(CN2CC[C@H]3C[C@H](c4nc(C5CC5)cs4)O[C@@H]3C2)ccn1
cytotoxicity at 70.5 h: -7.31%

O=C(c1ccoc1)N1CCC2(C1)CN(c1ncc(F)cn1)C2
cytotoxicity at 70.5 h: -0.91%

O=C(c1ccoc1)N1CCC2(C1)CN(c1ncccn1)C2
cytotoxicity at 70.5 h: 0.524%

CN(C)Cc1nnc2n1CCN(Cc1cccnc1)C2
cytotoxicity at 70.5 h: -2.36%

CCOCC(=O)NCC1Cn2nnc(-c3cccc(F)c3)c2CO1 (stereo unspecified)
cytotoxicity at 70.5 h: -4.09%

COc1ccc(CN2C[C@@H]3CN(C(=O)c4ccsc4)C[C@@H]3C2=O)cc1
cytotoxicity at 70.5 h: -4.99%

Cc1cccc(CN2C[C@@H]3CN(C(=O)c4ccco4)C[C@@H]3C2=O)c1
cytotoxicity at 70.5 h: -1.41%

O=C(O)c1ccc2c(c1)C1(CCCCC1)CN2C(=O)c1ccnnc1
cytotoxicity at 70.5 h: -4.43%

CC(=O)N1CCOC2(CCCN(Cc3ccc(Cl)c(C(F)(F)F)c3)C2)C1 (stereo unspecified)
cytotoxicity at 70.5 h: -1.77%

Cn1cc(CN2CC3(CCN(Cc4ccsc4)C3)C2)cn1
cytotoxicity at 70.5 h: 24.7%

O=C(O)CN1CCC2(CCc3ccccc32)CC1
cytotoxicity at 70.5 h: 13.9%

O=C(O)c1ccc2c(c1)C1(CCCCC1)CN2C(=O)c1cccc(F)c1
cytotoxicity at 70.5 h: 8.94%

CC(=O)N1[C@H](Cn2cncn2)C[C@@H]2CN(Cc3nccs3)CC[C@@H]21
cytotoxicity at 70.5 h: 14.9%

O=C(c1cccs1)N1CC(C(=O)N2CCCC2)C2(CCOCC2)C1 (stereo unspecified)
cytotoxicity at 70.5 h: 0.22%

O=C(Nc1ccccc1)C1CN(C(=O)c2cccs2)CC12CCOCC2 (stereo unspecified)
cytotoxicity at 70.5 h: -0.505%

CC(C)NC(=O)C1CN(C(=O)c2cccs2)CC12CCOCC2 (stereo unspecified)
cytotoxicity at 70.5 h: -1.8%

COCCN1CCO[C@H]2[C@H](OCc3cccc(C)n3)CC[C@@H]21
cytotoxicity at 70.5 h: -2.63%

Cc1ccc(CN2CC[C@H]3OCC[C@@H](C(=O)NCC4CC4)[C@@H]3C2)o1
cytotoxicity at 70.5 h: -5.45%

CC(C)CN1CCC2(CC(C(=O)NCc3cccnc3)=NO2)C1 (stereo unspecified)
cytotoxicity at 70.5 h: -5.8%

COC[C@]12COC[C@H]1CN(Cc1cccnc1OC)C2
cytotoxicity at 70.5 h: -19%

CC(C)NC(=O)CC1COC2(CCN(Cc3ccsc3)CC2)C1 (stereo unspecified)
cytotoxicity at 70.5 h: -9.99%

O=C(NCC1CC1)C1CCC2(CCN(C(=O)c3cccnc3)CC2)O1 (stereo unspecified)
cytotoxicity at 70.5 h: -9.48%

CN(C)C(=O)CN1C(=O)CCC12CCN(Cc1ccsc1)CC2
cytotoxicity at 70.5 h: -15.7%

CCN1C(=O)CCC12CCCN(Cc1ccc(F)cc1)CC2 (stereo unspecified)
cytotoxicity at 70.5 h: -9.34%

Cc1ccc(CN2CCC3(CCC(=O)N3CC(=O)N(C)C)CC2)s1
cytotoxicity at 70.5 h: -13.1%

O=C(C1CCCC1)N1C[C@@H]2CCN(c3cnccn3)C[C@@H]2C1
cytotoxicity at 70.5 h: -1.88%

CC(=O)N1CCN(Cc2ccco2)CC2(CC(=O)N(C)C2)C1 (stereo unspecified)
cytotoxicity at 70.5 h: 20.7%

O=C(c1ccco1)N1CC2(CCNCC2)c2cc(Cl)ccc21
cytotoxicity at 70.5 h: 27.2%

O=C1CC2(CCCCN2C(=O)c2ccncc2)CN1CC1CC1 (stereo unspecified)
cytotoxicity at 70.5 h: 1.69%

COCC1CN(Cc2sccc2C)Cc2nnn(CC3CC3)c21 (stereo unspecified)
cytotoxicity at 70.5 h: -4.06%

CN(C)C(=O)CO[C@@H]1CN(Cc2ccccc2F)[C@@H]2CCCO[C@@H]21
cytotoxicity at 70.5 h: -6.14%

CC(=O)N1CCCC2(CN(Cc3ccc(F)cc3)CCO2)C1 (stereo unspecified)
cytotoxicity at 70.5 h: 2.34%

Cc1ccc2c(c1)CCC21CCN(C(=O)CN(C)C)CC1
cytotoxicity at 70.5 h: -1.12%

Cc1ccc(CNCC2Cn3nnc(-c4cccc(F)c4)c3CO2)o1 (stereo unspecified)
cytotoxicity at 70.5 h: -2%

c1csc(CN2CCO[C@H]3[C@H](OCC4CCCC4)CC[C@@H]32)n1
cytotoxicity at 70.5 h: -1.77%

COCCN1CCC2(CCN(Cc3cccs3)CC2)C1=O
cytotoxicity at 70.5 h: 16.2%

O=C([C@@H]1COC[C@H]2CN(C3CCCC3)C[C@H]21)N1CCCCO1
cytotoxicity at 70.5 h: 11.7%

CC(=O)N1[C@H](Cn2cncn2)C[C@@H]2CN(CC3CC3)CC[C@@H]21
cytotoxicity at 70.5 h: -1.99%

CCN1CCC2(CCN(Cc3nccs3)CC2)C1=O
cytotoxicity at 70.5 h: 0.565%

O=C([C@@H]1COC[C@H]2CN(C3CCCC3)C[C@H]21)N1CCCO1
cytotoxicity at 70.5 h: -1.63%

CC(=O)N1CCC2(CCN(Cc3cccc(F)c3)CC2)CC1
cytotoxicity at 70.5 h: -2.12%

CCC(=O)N1CCC2(CCN(Cc3cccc(F)c3)CC2)CC1
cytotoxicity at 70.5 h: -1.29%

COCCNC(=O)[C@H]1CC[C@@H]2[C@@H](CCN2c2ncc(F)cn2)O1
cytotoxicity at 70.5 h: -1.33%

O=C(c1ccco1)N1CCCC2(CN(Cc3ccc(F)cc3)CCO2)C1 (stereo unspecified)
cytotoxicity at 70.5 h: -1.46%

Cc1ccc(CN2CC[C@H]3OCC[C@@H](C(=O)NCC4CC4)[C@@H]3C2)s1
cytotoxicity at 70.5 h: -6.5%

CCS(=O)(=O)N1CCOC2(CCCN(c3ccccn3)C2)C1 (stereo unspecified)
cytotoxicity at 70.5 h: -2.6%

CNC(=O)c1cc2c(nc1NCC1CC1)CCN(c1ccncn1)CC2
cytotoxicity at 70.5 h: -24.6%

O=C1CCC2(CCN(Cc3ccc(F)cc3)CC2)N1CCN1CCCC1
cytotoxicity at 70.5 h: -19.9%

CN1[C@@H](C(=O)NCC2CC2)C[C@H]2CN(Cc3cccc(C#N)c3)C[C@H]21
cytotoxicity at 70.5 h: -13.8%

CN1CCC(CN2CCC3(CCCN(Cc4ccoc4)C3)C2=O)CC1 (stereo unspecified)
cytotoxicity at 70.5 h: -10.7%

c1ccc(N2CCC3(COCCN(Cc4cccs4)C3)C2)nc1 (stereo unspecified)
cytotoxicity at 70.5 h: -4.82%

C[C@@H]1CN(Cc2cccc(F)c2)C[C@]12CCN(Cc1cccnc1)C2=O
cytotoxicity at 70.5 h: -10.4%

CNC(=O)[C@H]1C[C@@H]2CN(Cc3cccnc3OC)C[C@@H]2N1C(C)=O
cytotoxicity at 70.5 h: -9.57%

Cc1ccc(C(=O)N2CC3(CCNCC3)c3cc(Cl)ccc32)cn1
cytotoxicity at 70.5 h: -7.61%

O=C(c1ccncc1)N1CC2(CCNCC2)c2cc(Cl)ccc21
cytotoxicity at 70.5 h: -6.69%

COCCN1CC[C@]2(CN(Cc3cccnc3)C[C@H]2C)C1=O
cytotoxicity at 70.5 h: -10.8%

CN(C)CCN1CCCC12CCCN(C(=O)c1cccnc1)C2 (stereo unspecified)
cytotoxicity at 70.5 h: -5.22%

C[C@H]1CN(CC2CCOCC2)C[C@@]12CCN(Cc1cccnc1)C2=O
cytotoxicity at 70.5 h: -9.39%

Cc1cccc(CN2C(=O)CCC23CCN(c2ccccn2)CC3)n1
cytotoxicity at 70.5 h: -9.61%

Cc1ccc(N2C[C@@H]3CCCO[C@@H]3[C@H](N3CCCC3)C2)nn1
cytotoxicity at 70.5 h: 27%

COCC1CN(Cc2cccnc2)Cc2nnn(CC3CC3)c21 (stereo unspecified)
cytotoxicity at 70.5 h: 19.4%

O=C(Cc1cccnc1)N1CCCC2(CCN(C3CCOCC3)C2)C1 (stereo unspecified)
cytotoxicity at 70.5 h: 9.18%

c1ccc(CN2CCC3(CC2)CN(c2ccccn2)CCO3)nc1
cytotoxicity at 70.5 h: -5.77%

CCS(=O)(=O)N1CCC2(C1)C(=O)N(C)CCN2Cc1ccncc1 (stereo unspecified)
cytotoxicity at 70.5 h: -7.36%

O=C(Cc1cccnc1)N1CCC2(CCN(CC3CCCCC3)C2)CC1
cytotoxicity at 70.5 h: 7.82%

c1cncc(COCc2nnc3n2CCN(Cc2cccs2)C3)c1
cytotoxicity at 70.5 h: 12.3%

Cc1nc(CN2CCCC3(CCN(c4cccnc4)C3=O)C2)cs1 (stereo unspecified)
cytotoxicity at 70.5 h: 14.2%

O=C1N(c2cccnc2)CCC12CCCN(Cc1ccoc1)C2 (stereo unspecified)
cytotoxicity at 70.5 h: -4.21%

Cn1ccnc1CN1CCC2(CC1)CCN(Cc1ccoc1)C2
cytotoxicity at 70.5 h: -2.31%

CC(C)CN1CCn2c(COCc3cccnc3)nnc2C1
cytotoxicity at 70.5 h: -4.01%

c1csc(CN2CC3(CCN(Cc4ccsc4)C3)C2)n1
cytotoxicity at 70.5 h: 8.65%

CN(C)[C@@H]1CCN(c2ncccn2)[C@H]1Cc1cccnc1
cytotoxicity at 70.5 h: -3.76%

CN(C)[C@@H]1CCN(c2ncc(F)cn2)[C@H]1Cc1ccncc1
cytotoxicity at 70.5 h: -5.64%

Cc1cccc(CO[C@@H]2CC[C@H]3[C@H]2OCCN3Cc2cc(C)on2)n1
cytotoxicity at 70.5 h: -0.405%

O=C1CC[C@H]2[C@H](CCN2c2ncc(F)cn2)N1c1cccnc1
cytotoxicity at 70.5 h: -6.96%

Cc1ccc(C(=O)N2C[C@H]3CCCC(OCc4cccnc4)[C@H]3C2)cn1 (stereo partly specified)
cytotoxicity at 70.5 h: -1.36%

CO[C@@H]1CCN(Cc2cnn(C)c2)[C@@H]2CN(Cc3ccco3)C[C@@H]21
cytotoxicity at 70.5 h: -13.3%

C[C@@H]1CN(Cc2ccccn2)C[C@]12CCN(Cc1cccnc1)C2=O
cytotoxicity at 70.5 h: -13.1%

CN1CCN(Cc2cccnc2)C2(CCN(C3CCOCC3)C2)C1=O (stereo unspecified)
cytotoxicity at 70.5 h: -5.52%

CN1CCN(Cc2cccnc2)C2(CCN(Cc3ccccn3)C2)C1=O (stereo unspecified)
cytotoxicity at 70.5 h: -7.04%

CCN(CC)CCN1CCO[C@H]2[C@@H](OCc3ccncc3)CC[C@@H]21
cytotoxicity at 70.5 h: -1.93%
